From patent publication US11591284B2, “Compounds for the treatment of neuromuscular disorders” (NMD Pharma A/S, priority 2017, dated 2023)
Read-outs that look alike come from different tables or passages of the source.

Key:
[1] = tested on: isolated rat soleus muscles; test: Recovery of nerve-stimulated force in isolated rat soleus muscles exposed to sub-maximal tubocurarine; conditions: for 500 μM % change after addition: 500 μM compound
Procedure: FIGS. 3A-3B. […] The motor nerve was stimulated every 10 min for 2 s with 30 Hz with field stimulation using short duration pulses. […] Traces are shown before addition tubocurarine, after 40 min with tubocurarine, and after 110 min tubocurarine. […] This recovery of force was used in Table 1.
(§1) In all contraction experiments, isometric force production was determined and force produced during contractions was quantified by measuring the integral of the force response (AUC). Stimulation and force recordings have been described elsewhere. […] In these latter experiments, extracellular recordings of action potentials (M-waves) could be measured without temporal overlap with stimulation artefacts.
(§2) To initially confirm that inhibition of CIC-1 ion channels can be used to recover contractile force in muscle with reduced neuromuscular transmission, isolated nerve-muscle preparations were first exposed to either tubocurarine (FIG. 2A) or elevated Mg^2+ (FIG. 2B) and then a specific CIC-1 inhibitor (9-AC) was added.
To identify CIC-1 inhibitors that could be used for treatment of neuromuscular disorders we repeated the experiment shown in FIG. 2A but instead of adding 9-AC we added the compounds of interest in different concentrations within the range from 10 to 500 μM. […] For comparison with the muscle only exposed to tubocurarine (grey trace), the two traces have been overlaid. […] For comparison, muscles only exposed to tubocurarine have been included. The dotted line indicates the recovery of force with C8 when compared to the force production before its addition. This value was used in Table 1 for evaluation of the efficacy of the different compounds in recovering force.

rats [2] = test: Rotarod running performance in passive myasthenia gravis induced with MAB35 monoclonal antibody; assay type: in vivo, rat; conditions: MAB35 model, compared with sham
Procedure: FIG. 10. […] Prior to I.P. injection of MAB35 the animals had been familiarized to the rotarod over three training sessions distributed over two days. […] After this treatment performance was monitored every second hour. *Indicates significant different as evaluated using student t-test.
(§3) In both series of experiments, running performance was tested on a rotarod using a protocol where the rod was accelerated gradually over a 5 min period, and the running time and covered distance before falling off the rod were measured. […] Experiments with tubocurarine were carried out over two days, and on each day the effect of tubocurarine on running performance was tested. On the first day only tubocurarine was injected. […] On the second day, the animals were first allowed to run on the rotarod, and all animals performed normally. […] The allocation of the animals into the two groups (C8 or sham) was random and unknown to the experimenter (blinded experimental design).
In experiments with MAB35, animals were first familiarized with the rotarod over two consecutive days and then injected I.P. with MAB35. After injection, rotarod performance was then again monitored regularly over the consecutive two days. […] A considerable number of animals, however, became moribund failing to walk and they had altered ventilation (rapid) and pronounced ptosis. These animals were not included in experiments. […]

[3] = tested on: isolated rat soleus muscles; test: Recovery of nerve-stimulated force in isolated rat soleus muscles exposed to 3.5 mM Mg2+
Procedure: as §1
The aim was to find compounds that by inhibition of CIC-1 channels can recover nerve-stimulated force under conditions of fatigue including conditions where fatigue is caused by compromised neuromuscular transmission. Neuromuscular transmission dysfunction can develop because of both pre- and/or post-synaptic complications in connection with a disorder or as part of neuromuscular blockade during/after surgery. In the initial series of drug testing, experiments were performed with isolated muscles in the presence of sub-maximal ACh receptor antagonist tubocurarine. Since the inclusion of tubocurarine caused a partial loss of neuromuscular transmission this experiment mimics the conditions in myasthenia gravis and neuromuscular blockade. To mimic conditions with pre-synaptic complication (Lambert Eaton syndrome, motor neuron disorder, polyneuropathy) the intact nerve-muscle preparations were incubated at elevated extracellular Mg^2+, which is known to suppress release of ACh from nerve terminals of motor neurons.
as §2
The next series of experiments determined whether the compounds that recovered nerve-stimulated force in the presence of tubocurarine could also recover nerve-stimulated force at elevated extracellular Mg^2+.

isolated human muscles = conditions: human muscle; 150 μM (FIG. 8A)
[4] = tested on: isolated rat soleus muscles; test: Recovery of nerve-stimulated force in isolated rat soleus muscles with ACh receptors inhibited by 2 μM rocuronium; conditions: 50 μM compound added after 2 μM rocuronium had reduced force to 51±5%; 8 muscles; p<0.01
Procedure: In a separate series of experiments with 8 isolated rat soleus muscles, ACh receptors were inhibited using 2 μM rocuronium, which is a clinically used neuromuscular blocking agent. Under these conditions the nerve-stimulated force was reduced to 51±5% of force before rocuronium. […] This illustrates the potential of these compounds to be used as reversal agents.

rat soleus muscle = assay type: cell-based; conditions: 10 and 25 μM; 1 μM μ-conotoxin GiiiB
soleus muscles = test: Mg2+ concentration required to depress nerve-stimulated force by 50% (Kd,Mg2+) in soleus muscles; set-up: species or system rat; conditions: combination of C8 and 3,4-diaminopyridine
Procedure: FIGS. 6A-6E. […] Muscles from 4-week-old rats were stimulated to contract by activating the motor nerve with short duration pulses in field stimulation. Muscles contracted every 10 min for 2 s in response to 30 Hz stimulation. Four different experimental conditions were used. […] C) similar to A) but this muscle had been pre-incubated with 3,4-AP. […] The force integral (AUC) was determined at each extracellular Mg^2+ concentration. AUC was plotted against Mg^2+ concentration and the data was fitted to a sigmoidal function. This provided the extracellular Mg^2+ concentration that was required to reduce the nerve-stimulated force to 50% (Mg50) under the four different conditions (see Table 5).
While the use of tubocurarine mimics conditions with reduced neuromuscular transmission due to post-synaptic dysfunction (myasthenia gravis, neuromuscular blockade), the experiments with elevated extracellular Mg^2+ mimics conditions with pre-synaptic dysfunction akin to a range of neuromuscular disorders including Lambert Eaton syndrome, motor neuron disorders and polyneuropathy. […] Based on this it was determined whether recovery of nerve-stimulated force at elevated extracellular Mg^2+ with CIC-1 inhibiting compounds could be added to force recovery with 3,4-AP. […] To quantify the effect of compounds on Mg^2+ sensitivity the force at the different Mg^2+ concentrations was determined. […]

rats [5] = test: Rotarod running performance of rats after I.P. tubocurarine; assay type: in vivo, rat; conditions: 20 mg/kg I.P., 2 hrs before tubocurarine (0.13 mg/kg I.P.); tested 21 min after tubocurarine; sham around 2%
Procedure: FIGS. 9A-9B. […] FIG. 9A illustrates the design of the experiments. Prior to Day One the animals had been familiarized to the rotarod in three training sessions distributed over two days.
as §3
In the first series of in vivo experiments, myasthenia gravis was simply mimicked by I.P. injection of tubocurarine (0.13 mg/kg) in animals that had been familiarized to running on the rotarod. On the first of two consecutive days, tubocurarine was injected I.P. and the running performance of the animal was tested 21 minutes after this injection. On the second day of experimentation, the animals first performed a test run to ensure that they were no longer affected by the tubocurarine injected the day before. […]

[6] = Pharmacokinetic analysis of a single I.P. dose in rats; assay type: in vivo, Sprague-Dawley rats; conditions: rat, single I.P. dose 10 mg/kg, plasma
Procedure: This part of the study was performed by Pipeline Biotech A/S (Spørring, Denmark). […] Plasma concentrations (free and bound) were determined by OnTarget Chemistry (Uppsala, Sweden, Project No.: PB243-001).
Before conducting in vivo experiments with animal models of myasthenia gravis, some pharmacokinetic details were obtained for C8 in response to one-bolus I.P. injection.

[7] = 150 μM compound, % change in AUC force compared to AUC after 40 min in tubocurarine, before addition
[8] = % change in AUC force compared to AUC after 40 min in tubocurarine, before addition

## CC(C(=O)O)S(=O)(=O)c1ccc(F)cc1 (stereo not shown) [Compound C6, 2-(4-fluorobenzenesulfonyl)propanoic acid]
[1]; [7]
  150 μM % change after addition: −8%
[1]; [8]
  500 μM % change after addition: 9%

## C[C@H](OCc1ccccc1)C(=O)O [Compound C5, (2S)-2-(benzyloxy)propanoic acid]
[1]; [7]
  150 μM % change after addition: 1%
[1]; [8]
  500 μM % change after addition: 42%

## CC(Oc1ccc(Cl)cc1)C(=O)Oc1ccc(Cl)cc1 (stereo not shown) [Compound C11, 4-chlorophenyl 2-(4-chlorophenoxy)propanoate]
[1]
  150 μM % change after addition: 54%

## C[C@H](Oc1ccc(Br)cc1)C(=O)O [Compound C8, (2S)-2-(4-bromophenoxy)propanoic acid]
Rats [2]; 20 mg/kg I.P.
  rotarod running performance after injection: decline was reduced
Rats [2]; 30 mg/kg I.P.
  rotarod running performance after injection: clear recovery of performance
[3]; 50 μM compound, 3.5 mM Mg2+, % change in AUC force vs column 3 (after 70 min at elevated Mg2+)
  50 μM % change after addition: 13 ± 4%
[3]; 100 μM compound, 3.5 mM Mg2+, % change in AUC force vs column 3 (after 70 min at elevated Mg2+)
  100 μM % change after addition: 26 ± 5%
Isolated human muscles
  contractile force at elevated K+ and TTX: markedly recovery
[4]
  nerve-stimulated contractile force, % of force before rocuronium: 81±4%
Rat soleus muscle
  EPP amplitude compared to control conditions: significantly larger EPPs
Soleus muscles
  effect of combination on recovery of neuromuscular transmission: unexpected synergistic effect
Rats [5]
  increase in running distance on Day Two compared to Day One: around 150%
[6]
  CI_obs: 48.69 mL/h
  VD_obs: 259.62 mL
[1]; [7]
  150 μM % change after addition: 23%

## Cl.NCC(Oc1ccc(F)cc1)C(=O)O (stereo not shown) [Compound C9, 3-amino-2-(4-fluorophenoxy)propanoic acid hydrochloride]
[1]; [7]
  150 μM % change after addition: −13%
[1]; [8]
  500 μM % change after addition: 5%

## CCC(Oc1ccc(Cl)cc1)C(=O)O (stereo not shown) [Compound C7, 2-(4-chlorophenoxy)butanoic acid]
[1]; [7]
  150 μM % change after addition: 0%
[1]; [8]
  500 μM % change after addition: 40%

## COCC(C)C(Oc1ccc(Br)cc1)C(=O)O (stereo not shown) [Compound C21, 2-(4-bromophenoxy)-4-methoxy-3-methylbutanoic acid]
[1]; [7]
  150 μM % change after addition: 7%
[1]; [8]
  500 μM % change after addition: 36%

## O=C(O)c1c2ccccc2cc2ccccc12 [Compound 9-AC, reference compound]
[3]; 9-AC added at elevated Mg2+ (FIG. 2B)
  recovery of force and M-wave signal: marked recovery of both force and M-wave signal
[1]; 9-AC added after tubocurarine (FIG. 2A)
  recovery of force and M-wave signal: marked recovery of both force and M-wave signal
